{
  "source": "paper PMC5889738",
  "about": "(Biomaterials, 2018)",
  "test_system": "OCI-AML2 cells",
  "assay": "flow cytometry of apoptosis and live-dead cell staining",
  "type": "cell-based, human",
  "conditions": "OCI-AML2, 6 μM, 48 h",
  "data": [
    {"smiles": "COc1ccc(C2=N[C@@H](c3ccc(Cl)cc3)[C@@H](c3ccc(Cl)cc3)N2C(=O)N2CCNC(=O)C2)c(OC(C)C)c1", "note": "[Nutlin-3]", "values": [
      {"measurement": "apoptosis / sensitivity of OCI-AML2", "value": "significantly less sensitive"}
    ]}
  ]
}
